We go through 8 compounds from PMC3951249 (Bioorganic & medicinal chemistry letters, 2014).

Data set [1] has as its target T1, GlyT1 (Homo sapiens, UniProt P48067).
T1 sequence (P48067 1-706): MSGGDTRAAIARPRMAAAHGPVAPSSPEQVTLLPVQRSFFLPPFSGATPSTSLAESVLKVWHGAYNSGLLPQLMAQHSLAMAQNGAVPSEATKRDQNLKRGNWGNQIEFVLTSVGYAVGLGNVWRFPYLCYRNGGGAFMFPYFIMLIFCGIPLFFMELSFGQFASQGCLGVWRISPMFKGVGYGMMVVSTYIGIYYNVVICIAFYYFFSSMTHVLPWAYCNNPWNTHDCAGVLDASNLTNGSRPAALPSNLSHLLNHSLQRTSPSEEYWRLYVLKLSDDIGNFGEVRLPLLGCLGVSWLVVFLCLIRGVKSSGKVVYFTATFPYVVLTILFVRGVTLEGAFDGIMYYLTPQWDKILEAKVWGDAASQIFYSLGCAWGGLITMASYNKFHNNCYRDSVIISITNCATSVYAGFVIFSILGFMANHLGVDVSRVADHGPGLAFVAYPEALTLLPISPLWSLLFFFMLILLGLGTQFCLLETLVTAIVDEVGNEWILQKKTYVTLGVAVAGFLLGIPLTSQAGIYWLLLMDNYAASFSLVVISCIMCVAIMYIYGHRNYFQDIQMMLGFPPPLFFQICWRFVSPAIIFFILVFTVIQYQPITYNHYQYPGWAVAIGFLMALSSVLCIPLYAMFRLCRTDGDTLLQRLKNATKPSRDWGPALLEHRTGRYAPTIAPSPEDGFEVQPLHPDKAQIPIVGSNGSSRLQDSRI
The data set is described as follows: GlyT1 inhibition, [14C]-glycine uptake assay. As to conditions: for loss in GlyT1 potency relative to piperidine analog: 4a vs 2, 4b vs 1. The format is cell-based.

The target in another data set is T2, GlyT2 (Homo sapiens, UniProt Q9Y345).
T2 sequence (Q9Y345 1-797): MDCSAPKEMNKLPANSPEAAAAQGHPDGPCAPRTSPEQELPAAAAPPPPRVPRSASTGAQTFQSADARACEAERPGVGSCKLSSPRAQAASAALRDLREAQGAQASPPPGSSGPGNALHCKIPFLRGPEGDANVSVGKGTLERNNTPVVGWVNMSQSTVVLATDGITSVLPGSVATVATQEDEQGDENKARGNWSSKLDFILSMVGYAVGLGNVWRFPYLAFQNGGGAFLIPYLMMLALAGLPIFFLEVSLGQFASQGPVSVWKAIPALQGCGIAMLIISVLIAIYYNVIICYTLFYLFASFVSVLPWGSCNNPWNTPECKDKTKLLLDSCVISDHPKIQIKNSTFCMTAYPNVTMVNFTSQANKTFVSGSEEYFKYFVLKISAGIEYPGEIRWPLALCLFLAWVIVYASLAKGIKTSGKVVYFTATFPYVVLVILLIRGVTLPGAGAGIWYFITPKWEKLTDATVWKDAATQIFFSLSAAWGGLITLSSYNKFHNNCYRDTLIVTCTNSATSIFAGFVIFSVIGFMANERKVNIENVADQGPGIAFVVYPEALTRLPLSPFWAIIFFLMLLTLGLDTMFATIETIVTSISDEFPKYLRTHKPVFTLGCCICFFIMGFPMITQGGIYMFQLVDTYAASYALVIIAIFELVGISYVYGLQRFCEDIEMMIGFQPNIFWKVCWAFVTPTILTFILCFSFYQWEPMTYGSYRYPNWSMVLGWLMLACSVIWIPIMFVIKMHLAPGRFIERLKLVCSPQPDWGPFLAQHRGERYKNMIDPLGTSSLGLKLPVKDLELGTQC
The data set is described as follows: GlyT2 inhibition. Type of data set: cell-based.

In a further data set the target is CYP3A4 (Homo sapiens, UniProt P08684). The data set is described as follows: CYP inhibition. The format is in vitro ADME.
Data set [2] is described as follows: fraction unbound in human plasma. Type of data set: in vitro ADME. As to conditions: fu (hum).
Data set [3] can be described thus: brain tissue distribution study. As to conditions: rat. Type of data set: in vivo.
The subject of data set [4] is 68 GPCRs, ion channels and transporters. The data set is described as follows: Eurofin Lead Profiling panel of radioligand binding assays. As to conditions: @10 μM, 68 targets.
A short description of another data set: stability in rat plasma. Type of data set: in vitro ADME. As to conditions: 4 hours at 37 °C.
Data set [5] in a line: in vitro intrinsic clearance, human. Type of data set: in vitro ADME. As to conditions: from in vitro intrinsic clearance.
A short description of data set [6]: in vitro intrinsic clearance, rat. The format is in vitro ADME. As to conditions: from in vitro intrinsic clearance.
The subject of data set [7] is prepulse inhibition (PPI) of the rodent acoustic startle response. Kind of data set: prepulse inhibition. Type of data set: in vivo. As to conditions: rat, 30 mg/kg p.o.
The target of data set [8] is T1, GlyT1. As to conditions: ref 13-15 (1 and 2), ref 5-8 (NFPS); cited from earlier work.
Data set [9] addresses T1, GlyT1. As to conditions: 30 mg/kg oral; cited from earlier work.
For data set [10] the following is noted: data reported for Merck's 2; cited from earlier work.
The conditions of data set [11]: data reported for Merck's 2; cited from earlier work. This is another data set of the same source.
The test system of the next data set is CYP (isoforms not named). The data set is described as follows: CYP profile. Type of data set: in vitro ADME.

The IC50 is the point on the concentration scale where inhibition reaches its midpoint. A high value points to weaker potency. A word on the fraction unbound: it is free concentration divided by total concentration. Read a high fraction unbound as weak binding.

CYP3A4, sequence (P08684 whole entry): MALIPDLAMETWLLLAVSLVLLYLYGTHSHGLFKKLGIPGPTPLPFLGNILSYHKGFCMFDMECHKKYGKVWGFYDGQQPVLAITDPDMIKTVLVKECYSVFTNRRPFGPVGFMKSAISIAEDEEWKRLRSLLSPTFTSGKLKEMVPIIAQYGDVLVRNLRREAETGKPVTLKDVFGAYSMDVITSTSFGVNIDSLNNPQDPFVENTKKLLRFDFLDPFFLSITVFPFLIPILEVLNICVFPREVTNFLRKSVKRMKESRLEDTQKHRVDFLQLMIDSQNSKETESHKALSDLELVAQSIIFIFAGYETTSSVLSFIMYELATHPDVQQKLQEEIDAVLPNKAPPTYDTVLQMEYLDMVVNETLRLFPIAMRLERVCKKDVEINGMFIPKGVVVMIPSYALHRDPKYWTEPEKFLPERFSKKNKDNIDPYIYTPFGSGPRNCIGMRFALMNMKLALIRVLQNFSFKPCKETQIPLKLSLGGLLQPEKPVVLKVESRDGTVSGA

As to `Cn1cnc(S(=O)(=O)N2C[C@@H]3[C@H](C2)[C@@]3(CNC(=O)c2c(Cl)cccc2Cl)CC2CC2)c1` [Compound 12c], the “mechanism of inhibition with respect to glycine (Eadie-Hoffstee plot)” value at GlyT1 [1] ([14C]-glycine transport, 40 nM 12c) is given as “competitive”.

Consider `Cn1cnc(S(=O)(=O)N2C[C@@H]3[C@H](C2)[C@@]3(CNC(=O)c2ccccc2C(F)(F)F)CC2CC2)c1` [Compound 12d], for which the IC50 against GlyT2 is more than 30 µM; against CYP3A4 it was 14.9 µM. The same compound returned a fraction unbound in [2] of 0.068. The entries for the “brain AUC0-6hr” value in data set [3] (10 mg/kg p.o. in 0.5% methocellulose) and in data set [3] (10 mg/kg s.c. in 10% tween 80) were 0.956 µM·h and 0.431 µM·h, respectively. In addition, in data set [4], the “inhibition against any target in the panel” value is not above 50%. Moreover, the “stability in rat plasma” value in “stability in rat plasma” is on record as “stable”. Moreover, the “predicted hepatic clearance ClHEP” value in data set [5] is on record as 17.7 mL/min/kg; in data set [6], 43.0 mL/min/kg. Besides, the “effect on basal startle amplitude during no-stimulus trials” value in [7] was “no effect”.

With `CCS(=O)(=O)N1CCC(CNC(=O)c2ccc(Cl)cc2Cl)(CC2CC2)CC1` [Compound 2], the “effect on basal startle amplitude during no-stimulus trials” value in data set [7] is “no effect”. The “known mechanism of action with respect to glycine” value at GlyT1 [8] is “competitive”. Moreover, the occupancy at GlyT1 [9] is listed as more than 90%. In addition, the clearance in rat result in data set [10] is given as “moderate to high clearance”. Besides, the clearance in dog result in [11] was “low clearance”.

As for `CCCS(=O)(=O)N1C[C@@H]2[C@H](C1)[C@@]2(CNC(=O)c1ccc(Cl)cc1Cl)CC1CC1` [Compound 4b], the “loss in GlyT1 potency relative to piperidine analog” value at GlyT1 [1] was ~ 150 fold.

As to `Cn1cnc(S(=O)(=O)N2C[C@@H]3[C@H](C2)[C@@]3(CNC(=O)c2ccccc2C(F)(F)F)c2ccccn2)c1` [Compound 11], the IC50 in the data set on CYP (isoforms not named) was more than 30 µM.

Take `CCCS(=O)(=O)N1CCC(c2ccccc2)([C@H](C)NC(=O)c2ccc(Cl)cc2Cl)CC1` [Compound 1]: the “known mechanism of action with respect to glycine” value on GlyT1 [8] is reported as “competitive”.

On to `CCS(=O)(=O)N1C[C@@H]2[C@H](C1)[C@@]2(CNC(=O)c1ccc(Cl)cc1Cl)CC1CC1` [Compound 4a], for which the “loss in GlyT1 potency relative to piperidine analog” value on GlyT1 [1] was found to be 50 fold.

On to `Cn1cnc(S(=O)(=O)N2C[C@@H]3[C@H](C2)[C@@]3(CNC(=O)c2ccc(Cl)cc2Cl)c2ccccn2)c1` [Compound 10], for which the IC50 in the data set on CYP (isoforms not named) was more than 30 µM.
